Values of other authors in patent publication US20110300245A1, “Topical, palatable, anti-inflammatory and analgesic for specific application to intraoral, gingival and extraoral areas correlated with, and related to, the trigeminal nerve and its nerve branches and plexus. To mitigate, attenuate or prevent migraine-type headache, cluster-type headache, …” (priority 2010, published 2011).
Like-named read-outs stand apart in the source and are kept apart here.

How the values were obtained:
[1] = for patients with symptoms controlled within 2 weeks: added orally to the sulfasalazine/prednisolone regimen, allopurinol 50 mg or DMSO 500 mg four times a day, p<0.01
[2] = test system: peripheral nerve C fibers; conditions: laboratory studies
[3] = rheumatoid arthritis patients
[4] = not given; remark: listed apart in the source
[5] = in vivo
[6] = not given; remark: listed apart in the source
[7] = intravesical, 213 patients
[8] = not given; remark: listed apart in the source
[9] = not given; remark: listed apart in the source
cell proliferation = conditions: in vitro
[10] = given with sulfasalazine 2 gm daily, p<0.05

## CNS(=O)(=O)Cc1ccc2[nH]cc(CCN(C)C)c2c1 [sumatriptan]
50 mg oral, at 1, 2, 4, and 24 hours after initiation of treatment
  mean headache relief (0-10 scale): Significant mean headache relief
50 mg oral, same post treatment time intervals (1, 2, 4, 24 hours)
  nausea relief: Significant nausea relief
At 24 hours
  headache and nausea recurrence: some headache and nausea recurrence

## Oc1ncnc2[nH]ncc12 [allopurinol]
[1]
  patients with symptoms controlled within 2 weeks: 84%
[1]; [10]
  patients relapsed during 12 months of prophylactic treatment: 5%

## C[S+](C)[O-] [DMSO, dimethyl sulfoxide]
[2]
  nerve conduction: blocking peripheral nerve C fibers
[3]
  effects on joint pain, range of joint motion and grip strength: analgesic and anti-inflammatory effects
[4]; 27 patients with rheumatoid arthritis
  relief of pain in rheumatoid arthritis: all but four had some degree of relief of pain
[4]; 103 patients, topical application
  pain relief: pain relief of varying degrees in most patients
[4]; DMSO 1.0 ml, five patients with acute supraspinatus tendon pain associated with calcification
  time to pain relief after application: ≤ 10 min
[4]; all six patients with acute calcified supraspinatus bursitis
  symptomatic relief: Spectacular symptomatic relief
[4]; continued applications every four hours over the following 24 hour period
  recovery with normal use of the shoulder: complete recovery
[5]
  edema in animals: reduction of edema
[6]; after 6 days of treatment, ten patients
  number of patients with normal ICP: 7
[6]; intravenous every 6 h, all ten patients, ICP 40-127 mm Hg
  ICP after 24 h: reduction of ICP
[6]; severe closed-head injury patients, intravenous
  neurological outcome: improves neurological outcome
[1]
  patients with symptoms controlled within 2 weeks: 84%
[1]; [10]
  patients relapsed during 12 months of prophylactic treatment: 5%
[7]
  systemic or local toxicity: no systemic or local toxicity
[7]; majority of patients
  symptomatic relief: Significant symptomatic relief
[8]; acute patients
  patients showing improvement: 80%
[8]; chronic patients
  patients showing improvement: 60%

## CC(C(=O)O)c1cccc(C(=O)c2ccccc2)c1 (stereo not shown) [Ketoprofen]
[9]; 30-day treatment phase
  side effects: minimal
[9]; 30-day treatment phase, gel once daily, 20 patients, 30-day baseline 454.8, p<0.001
  average monthly headache burden score (intensity 0-10 x duration in hours): 86.5
[9]; treatment phase versus baseline
  analgesic and headache medication intake: significantly reduced

## O=C(O)c1cc(/N=N/c2ccc(S(=O)(=O)Nc3ccccn3)cc2)ccc1O [sulfasoizine, sulfasalazine]
[1]; sulfasalazine 2 gm daily alone
  patients relapsed during 12 months of prophylactic treatment: 25%

## O=C(O)C[C@H](O)C(=O)OC[C@H]1O[C@H](O[C@H]2[C@H](O)[C@@H](O)[C@@H](O[C@H]3[C@H](O)[C@@H](O)[C@@H](O[C@H]4[C@H](O)[C@@H](O)[C@@H](O[C@H]5[C@H](O)[C@@H](O)C(O)O[C@@H]5COC(=O)[C@@H](O)CC(=O)O)O[C@@H]4COC(=O)[C@@H](O)CC(=O)O)O[C@@H]3COC(=O)[C@@H](O)CC(=O)O)O[C@@H]2COC(=O)[C@@H](O)CC(=O)O)[C@H](O)[C@@H](O)[C@@H]1O[C@H]1O[C@H](CO)[C@@H](O)[C@H](O)[C@H]1O (stereo partly drawn) [veracylglucan C, alpha-D-Glcp-(1-->4)-tetra-[6-O-(1-L-maloyl)-alpha-D-Glcp-(1-->4)]-6-O-(1-L-maloyl)-alpha,-beta-D-Glcp]
Cell proliferation
  anti-inflammatory activity and effect on cell proliferation: significant cell proliferative and anti-inflammatory activities

## O=C(O)C[C@H](O)C(=O)OC[C@H]1OC(O)[C@H](O)[C@@H](O)[C@@H]1O[C@H]1O[C@H](CO)[C@@H](O)[C@H](O)[C@H]1O (stereo partly drawn) [veracylglucan B, alpha-D-Glcp-(1-->4)-6-O-(1-L-maloyl)-alpha,-beta,-D-Glcp]
Cell proliferation
  anti-inflammatory activity and effect on cell proliferation: potent anti-inflammatory and anti-proliferative effects
